Values of other authors, collected in paper PMC7651685 (Psychopharmacology, 2020).
pIC50: −log10 of the molar value. Structures can show the parent of a compound that is named as a salt.

Experiments:
DAT [1] = test system: DAT; design: method as in Hasenhuetl et al. [2015]; conditions: ref Hasenhuetl et al. [2015]; cited from earlier work
[2] = test system: solute carrier (SLC) and organic anion transporters (OAT); conditions: LLC-PK1 cell monolayers and Xenopus Laevis Oocytes; Data-on-file; ref Sunovion Reports #531, 544, 575; cited from earlier work
[3] = test system: efflux transporters of the ATP binding cassette (ABC) superfamily; conditions: LLC-PK1 cell monolayers and Xenopus Laevis Oocytes; Data-on-file; ref Sunovion Reports #531, 544, 575; cited from earlier work
[4] = rodent, 14C-DAS; Data-on-file; ref Sunovion report 360-365; cited from earlier work
[5] = orally administered, recreational stimulant users; ref Koblan et al. [2016]; cited from earlier work
P-gp = conditions: LLC-PK1 cell monolayers and Xenopus Laevis Oocytes; Data-on-file; ref Sunovion Reports #531, 544, 575; cited from earlier work
DAT [6] = conditions: ref Rowley et al. [2017]; read-out: Affinity for DAT, IC50; cited from earlier work

| Compound | Association rate (kon) to DAT (DAT [1]) [M⁻¹ s⁻¹] | Active uptake by SLC and OAT transporters [2] | Substrate for other efflux transporters of the ABC superfamily [3] | brain:plasma ratio/partition coefficient (Kp) [4] | Potential for abuse [5] | Substrate for P-gp (P-gp) | pIC50 (DAT [6]) |
| --- | --- | --- | --- | --- | --- | --- | --- |
| COC(=O)C(c1ccccc1)C1CCCCN1 (racemic) [MPH, (±)-Methyl α-Phenyl-α-(2-piperidyl)acetate hydrochloride, reference compound] | 830000 | – | – | – | – | – | – |
| N[C@@H]1CC[C@@H](c2ccc(Cl)c(Cl)c2)c2ccccc21 [DAS, (1R,4S)-4-(3,4-dichlorophenyl)-1,2,3,4-tetra-hydronaphthalen-1-amine] | – | not actively taken up | not a substrate | 6.2–12.3 | low potential for abuse compared with MPH | not a substrate | 8.52 |
